We go through 13 molecules from US9340577B2, “HLA binding motifs and peptides and their uses” (priority 1992, dated 2016).

No end group written: not given here.

Holding throughout (experiment): biochemical
For one assay, the target named is DRB1*0301 (Homo sapiens, UniProt P01903+P01911, A100K/A102G/A103R/A169T/F55Y/I96L/K41T/L162R/M171V/P40S/Q125H/Q178H/Q39Y/R42S/S66N/T106N/T262R/W38E/Y61H). The format is binding.
The target in another assay is DRB1*1201 (Homo sapiens, UniProt P01903+P01911, A100R/A169T/D57E/D86V/F55L/H45Y/K41T/L162R/M171V/P40S/Q125H/Q178H/Q39Y/Q99D/R42G/S66L/T262R/V114A/V67L/W38E/Y59H/Y61H/Y89S). The class given is binding.
A further assay addresses DR1 (DRB1*0101) (Homo sapiens, UniProt P01903+P01911, A100R/D57E/F55L/F60I/F76Y/I96L/L162R/M171V/P40L/Q125E/R42F/V115G/Y59C). The class given is binding.
The target of the next assay is DR7 (DRB1*0701) (Homo sapiens, UniProt P01903+P01911, A100R/A102G/A103Q/D57E/D86V/E43K/F76Y/K127E/L162R/M171V/P40G/Q125H/Q99D/R33Q/R42Y/R54Q/S133A/S66F/T210M/V115G/Y107V/Y59L/Y89S). The class given is binding.
The next assay concerns the target DRB1*0802 (Homo sapiens, UniProt P01903+P01911, A100R/A103L/A169T/F76Y/H45Y/I96F/K41T/L162R/M171V/P40S/Q125H/Q178H/Q39Y/Q99D/R218S/R42G/S66Y/V115G/W38E). The class given is binding.
The target of a further assay is DRB1*0901 (Homo sapiens, UniProt P01903+P01911, A100R/A103E/D57H/D86V/F55Y/F60I/F76Y/I96F/K127E/L162R/M171V/P40D/Q125H/Q99R/R33Q/R42F/S133A/S66N/T210M/V115G/W38K/Y107V/Y59G/Y89S). The format is binding.
The next assay has as its target DRB1*1302 (Homo sapiens, UniProt P01903+P01911, A100E/A169T/K41T/L162R/M171V/P40S/Q125H/Q178H/Q39Y/Q99D/R42S/S66N/T262R/V115G/W38E/Y61H). The format is binding.
The target of the next assay is DRB1*1501 (Homo sapiens, UniProt P01903+P01911). The format is binding.
Another assay addresses DRB1*1101 (Homo sapiens, UniProt P01903+P01911, A100R/A169T/A87E/I96F/K41T/L162R/M171V/P40S/Q125H/Q178H/Q39Y/Q99D/R42S/S66Y/T262R/V115G/W38E). As to conditions: Binding affinity DRB1 *1101.
In the next assay the target is DRB5*0101 (Homo sapiens, UniProt P01903+Q30154). As to conditions: Binding affinity DRB5 *0101.

Sequence of DRB1*0301 (P01903 26-254 limits assumed, other chains not shown): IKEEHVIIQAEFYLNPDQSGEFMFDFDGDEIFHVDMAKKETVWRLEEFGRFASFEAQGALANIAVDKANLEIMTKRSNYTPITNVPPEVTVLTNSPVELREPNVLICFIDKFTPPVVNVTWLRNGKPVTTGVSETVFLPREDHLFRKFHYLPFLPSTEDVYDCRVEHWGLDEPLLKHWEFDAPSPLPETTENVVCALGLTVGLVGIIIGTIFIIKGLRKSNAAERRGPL
Sequence of DRB1*1101 (P01903 26-254 limits assumed, other chains not shown): as above
Sequence of DRB1*1302 (P01903 26-254 limits assumed, other chains not shown): as above

Regarding `CC[C@H](C)[C@H](NC(=O)[C@H](Cc1c[nH]c2ccccc12)NC(=O)[C@@H](NC(=O)[C@@H](NC(=O)[C@H](CO)NC(=O)[C@H](CC(C)C)NC(=O)[C@@H](N)[C@@H](C)O)C(C)C)[C@@H](C)O)C(=O)NCC(=O)N[C@@H](C)C(=O)N[C@@H](C)C(=O)N1CCC[C@H]1C(=O)N[C@@H](CC(C)C)C(=O)N[C@H](C(=O)N[C@@H](CC(C)C)C(=O)N[C@@H](CO)C(=O)O)[C@@H](C)CC` [Peptide 68.0058], the IC50 is greater than 20000 nM against DRB1*0301 and 55 nM against DRB1*1201.

On to `CC[C@H](C)[C@H](NC(=O)[C@H](CS)NC(=O)[C@H](Cc1c[nH]cn1)NC(=O)[C@H](C)N)C(=O)N[C@@H](CCCNC(=N)N)C(=O)N[C@@H](CC(N)=O)C(=O)N[C@@H](CCCCN)C(=O)N[C@@H](CO)C(=O)N[C@H](C(=O)N[C@H](C(=O)N[C@@H](CC(C)C)C(=O)N[C@@H](CC(C)C)C(=O)NCC(=O)N[C@@H](CCCNC(=N)N)C(=O)N[C@@H](Cc1c[nH]cn1)C(=O)O)[C@@H](C)CC)C(C)C` [Peptide 68.0066], for which the half-inhibitory concentration (IC50) against DRB1*0301 was greater than 20000 nM; against DRB1*1201 it was 160 nM.

`CC(C)C[C@H](NC(=O)[C@@H]1CCCN1C(=O)[C@H](Cc1c[nH]cn1)NC(=O)[C@@H]1CCCN1C(=O)[C@H](Cc1ccccc1)NC(=O)[C@H](CO)NC(=O)[C@H](Cc1c[nH]cn1)NC(=O)[C@H](CO)NC(=O)[C@@H](NC(=O)[C@H](CCC(N)=O)NC(=O)[C@H](Cc1ccccc1)NC(=O)[C@@H](NC(=O)[C@H](CCC(N)=O)NC(=O)CN)C(C)C)C(C)C)C(=O)N[C@@H](Cc1ccc(O)cc1)C(=O)O` [Peptide 68.0069]: the IC50 against DRB1*0301 is greater than 20000 nM; at DRB1*1201, 557 nM.

Consider `CC[C@H](C)[C@H](NC(=O)[C@H](Cc1c[nH]c2ccccc12)NC(=O)[C@H](CCCCN)NC(=O)[C@H](CCCNC(=N)N)NC(=O)[C@H](Cc1ccc(O)cc1)NC(=O)[C@H](Cc1c[nH]cn1)NC(=O)[C@@H](NC(=O)[C@@H](NC(=O)[C@H](CCCCN)NC(=O)[C@@H](NC(=O)[C@H](Cc1ccc(O)cc1)NC(=O)[C@H](CC(C)C)NC(=O)[C@H](CO)NC(=O)[C@@H]1CCCN1C(=O)[C@@H](N)CCCNC(=N)N)[C@@H](C)O)C(C)C)C(C)C)C(=O)O` [Peptide 68.0082], for which the figures for the 50% inhibitory concentration (IC50) against DRB1*0301 and against DRB1*1201 were greater than 20000 nM and 4160 nM, respectively.

With `CC[C@H](C)[C@H](NC(=O)[C@H](Cc1ccccc1)NC(=O)[C@H](Cc1c[nH]c2ccccc12)NC(=O)CNC(=O)[C@H](Cc1ccccc1)NC(=O)[C@H](CC(C)C)NC(=O)[C@H](Cc1ccccc1)NC(=O)CNC(=O)[C@@H](N)CC(C)C)C(=O)N[C@@H](CCCCN)C(=O)N[C@@H](CO)C(=O)N[C@@H](CO)C(=O)N[C@@H](CC(N)=O)C(=O)N[C@@H](CCC(=O)O)C(=O)N[C@@H](C)C(=O)O` [Peptide 68.0084], the figures for the IC50 on DRB1*0301 and against DRB1*1201 were greater than 20000 nM and 475 nM, respectively.

Turning to `CC[C@H](C)[C@H](NC(=O)[C@H](CCCNC(=N)N)NC(=O)[C@@H](N)[C@@H](C)O)C(=O)N[C@@H](Cc1ccc(O)cc1)C(=O)N[C@@H](CC(N)=O)C(=O)N[C@H](C(=O)N[C@H](C(=O)NCC(=O)N[C@H](C(=O)N[C@@H](CC(C)C)C(=O)N[C@@H](CCCNC(=N)N)C(=O)NCC(=O)N[C@@H](C)C(=O)N[C@H](C(=O)N[C@@H](CCC(=O)O)C(=O)O)C(C)C)[C@@H](C)O)[C@@H](C)CC)C(C)C` [Peptide 68.0107], the 50% inhibitory concentration (IC50) against DRB1*0301 is greater than 20000 nM; against DRB1*1201, 502 nM.

Take `CSCC[C@H](NC(=O)[C@@H]1CCCN1C(=O)[C@H](CC(=O)O)NC(=O)[C@@H](N)Cc1ccc(O)cc1)C(=O)N[C@@H](Cc1ccccc1)C(=O)N[C@@H](CCCCN)C(=O)N[C@@H](Cc1ccc(O)cc1)C(=O)N[C@@H](Cc1c[nH]cn1)C(=O)N[C@@H](CC(C)C)C(=O)N[C@H](C(=O)N[C@H](C(=O)N[C@@H](C)C(=O)N[C@@H](CCC(N)=O)C(=O)N[C@H](C(=O)N[C@@H](CCCNC(=N)N)C(=O)O)C(C)C)C(C)C)[C@@H](C)O` [Peptide 68.0117]: the 50% inhibitory concentration (IC50) at DRB1*0301 is greater than 20000 nM; against DRB1*1201, 240 nM.

Take `CSCC[C@H](NC(=O)[C@@H]1CCCN1C(=O)[C@@H](N)CC(=O)O)C(=O)N[C@@H](Cc1ccccc1)C(=O)N[C@@H](CCCCN)C(=O)N[C@@H](Cc1ccc(O)cc1)C(=O)N[C@@H](Cc1c[nH]cn1)C(=O)N[C@@H](CC(C)C)C(=O)N[C@H](C(=O)N[C@H](C(=O)N[C@@H](C)C(=O)N[C@@H](CCC(N)=O)C(=O)N[C@H](C(=O)N[C@@H](CCCNC(=N)N)C(=O)NCC(=O)O)C(C)C)C(C)C)[C@@H](C)O` [Peptide 68.0118]: the results for the IC50 at DRB1*0301 and against DRB1*1201 were greater than 20000 nM and 470 nM, respectively.

For `CSCC[C@H](NC(=O)CNC(=O)CNC(=O)[C@H](CCCNC(=N)N)NC(=O)[C@@H](NC(=O)[C@H](CCC(N)=O)NC(=O)[C@H](C)NC(=O)[C@@H](NC(=O)[C@@H](NC(=O)[C@H](CC(C)C)NC(=O)[C@H](Cc1c[nH]cn1)NC(=O)[C@H](Cc1ccc(O)cc1)NC(=O)[C@H](CCCCN)NC(=O)[C@H](Cc1ccccc1)NC(=O)[C@@H](N)CCSC)[C@@H](C)O)C(C)C)C(C)C)C(=O)O` [Peptide 68.0119], the results for the IC50 on DRB1*0301 and against DRB1*1201 were greater than 20000 nM and 482 nM, respectively.

As for `CC[C@H](C)[C@H](NC(=O)[C@H](CCC(N)=O)NC(=O)[C@@H](N)CCCNC(=N)N)C(=O)N[C@@H](Cc1ccc(O)cc1)C(=O)N[C@H](C(=O)N[C@@H](C)C(=O)N[C@@H](C)C(=O)N[C@@H](Cc1ccccc1)C(=O)N[C@H](C(=O)N[C@H](C(=O)N[C@@H](CCC(N)=O)C(=O)N[C@@H](C)C(=O)N[C@@H](C)C(=O)N[C@@H](C)C(=O)N[C@@H](CCC(=O)O)C(=O)O)C(C)C)[C@@H](C)O)C(C)C` [Peptide 68.0134], the IC50 was greater than 20000 nM on DRB1*0301 and 609 nM against DRB1*1201.

For the molecule `CC[C@H](C)[C@H](NC(=O)[C@@H](N)CCC(N)=O)C(=O)N[C@@H](Cc1ccc(O)cc1)C(=O)N[C@H](C(=O)N[C@@H](C)C(=O)N[C@@H](C)C(=O)N[C@@H](Cc1ccccc1)C(=O)N[C@H](C(=O)N[C@H](C(=O)N[C@@H](CCC(N)=O)C(=O)N[C@@H](C)C(=O)N[C@@H](C)C(=O)N[C@@H](C)C(=O)N[C@@H](CCC(=O)O)C(=O)N[C@H](C(=O)O)[C@@H](C)O)C(C)C)[C@@H](C)O)C(C)C` [Peptide 68.0135], the values for the IC50 at DRB1*0301 and at DRB1*1201 were greater than 20000 nM and 934 nM, respectively.

For `CC(C)C[C@H](NC(=O)[C@@H](NC(=O)[C@H](CCC(=O)O)NC(=O)[C@H](C)NC(=O)[C@H](C)NC(=O)[C@H](C)NC(=O)[C@H](CCC(N)=O)NC(=O)[C@@H](NC(=O)[C@@H](NC(=O)[C@H](Cc1ccccc1)NC(=O)[C@H](C)NC(=O)[C@H](C)NC(=O)[C@@H](N)C(C)C)[C@@H](C)O)C(C)C)[C@@H](C)O)C(=O)N[C@@H](CO)C(=O)N[C@@H](CCC(=O)O)C(=O)O` [Peptide 68.0136], the IC50 is greater than 20000 nM against DRB1*0301 and 4460 nM against DRB1*1201.

On to TVTFVTEQQQQMFLG [Peptide 90.0210], for which the concentration for half-maximal inhibition (IC50) is 1950 nM against DR1 (DRB1*0101); greater than 20000 nM on DR7 (DRB1*0701); 41 nM on DRB1*0301; 6020 nM on DRB1*0802; greater than 20000 nM against DRB1*0901; 2770 nM against DRB1*1201. Besides, the IC50 against DRB1*1302, against DRB1*1501, at DRB1*1101 and at DRB5*0101 was greater than 20000 nM throughout.

As a reminder, the IC50 is the point on the concentration scale where inhibition reaches its midpoint. Higher therefore signals a need for much substance.
